Results: patent publication EP4818330A1, “PHARMACEUTICAL PREPARATION FOR DIAGNOSING AND TREATING ALZHEIMER'S DISEASE” (Shanghai East Hospital Tongji University, priority 2023, dated 2025)
Several values for one entry are separate records, joined by “and”; a condition that tells them apart may be missing. Equal entries are not always repeated. Where two headings read alike, the source gives them in different places.

What was measured:
[1] = Blood drug concentration in mice after single intraperitoneal administration; format: in vivo, Balb/c strain mice
Protocol: Compound preparation: A compound of Formula I was commercially available, which was dissolved and diluted with a solution comprising 10% DMSO+90% (20% HP-β-CD).
Research method: first, Balb/c strain mice were administered with a single intraperitoneal injection at a concentration of 2.5 mg/kg, and the content of the compound in serum was detected at 0.25, 0.5, 1, 2, 4, 6, 8 and 24 h after injection; second, brain tissues of mice at 0.5, 4 and 24 h after injection were collected to detect the compound content, so as to evaluate the blood-brain barrier penetration rate.

[2] = CCK8 cell viability (toxicity) assay in 293T cell line; format: cell-based; settings: human, 293T cells, 293T, 24 h, CCK8, three replicate wells
Text: (§1) The CCK8 cell viability assay (CCK8) was adopted. Its principle is mainly based on the reduction reaction of WST-8 (chemical name: 2-(2-methoxy-4-nitrophenyl)-3-(4-nitrophenyl)-5-(2,4-disulfophenyl)-2H-tetrazolium monosodium salt). In the presence of living cells, WST-8 can be reduced by dehydrogenases in mitochondria to generate a highly water-soluble orange-yellow formazan product. The color intensity is directly proportional to the number of living cells, wherein the quantity of living cells can be indirectly reflected by measuring the absorbance of formazan products (typically at a wavelength of 450 nm). The CCK-8 assay is widely used in cell proliferation assay, cytotoxicity assay and tumor drug sensitivity test.
(§2) In in vitro experiments, the compound stock solution was prepared into 10 mM with DMSO and diluted with a culture medium before use. The 293T cell line was used for preliminary concentration screening of the compound, wherein concentration gradients were set as follows: 5 µmol, 10 µmol, 20 µmol, 40 µmol, 80 µmol and 160 µmol. After the cells were treated with the compound for 24 h, the CCK8 detection kit was used, wherein the cell viability was calculated based on the absorbance values detected by a microplate reader. Data processing was performed using GraphPad Prism software to plot the IC50 curve.

293T cell line = assay: as above; format: cell-based; settings: 293T, 24 h, CCK8, three replicate wells
Text: as §1, §2

[3] = CCK8 cell viability (toxicity) assay in primary neurons; format: cell-based, mouse; settings: ICR, mouse, primary hippocampal neurons, 24 h, CCK8, three replicate wells
Text: as §1
(§3) Primary hippocampal neuron culture: After ICR fetal mice at 18-21 days of gestation (E18-E21) were anesthetized, the fetal mice were dissected in a clean area and immersed in 75% ethanol for 1-2 min. The mouse head was taken out, the surface skull was removed with micro-scissors, and the brain tissue was transferred to an anatomical dissociation solution. Under a microscope, blood vessels and meninges were removed, hippocampal tissue was isolated, the extracted hippocampal tissue was placed in a 3.5 cm dish containing the anatomical dissociation solution, and the hippocampal tissue was cut into small fragments using micro-scissors. The minced hippocampal tissue was transferred to a 7 ml EP tube using a pipette gun. The hippocampal tissue hereinabove was centrifuged at 1000 rpm for 3-5 min, and the anatomical separation solution was discarded. 0.5-1 ml of papain digestion solution was added to the EP tube hereinabove, and the EP tube was placed in a 37°C incubator for 30 min. 300 µL of Trituration buffer 300 (DNase) and 5 mL of complete medium were added, and the hippocampal tissue was gently pipetted more than 10 times. The cell suspension was allowed to stand for 3 min, and 3-4 ml of supernatant was gently aspirated into a 15 ml tube using a pipette. 3-4 ml of complete medium was added again, and the hippocampal tissue was gently pipetted more than 10 times. Step 8 was repeated, and 3-4 ml of supernatant was transferred to the same 15 ml tube again. The previous step was repeated again. The collected supernatant was centrifuged at 1000 rpm, the supernatant was discarded, and 5 ml of complete medium was added. The mixture was gently pipetted and suspended, and then centrifuged again at 1000 rpm for 5 min. The complete medium was added to resuspend the cells, and then a portion of the cells was aspirated for counting. Generally, when neuronal cells were planted in a 24-well plate, the concentration of the cell suspension was generally 2×10^5/ml, and 500 µl of cells is inoculated per well. The resuspended neuron cells with a diluted ratio were seeded onto a glass slide treated with PDL, then the glass slide was placed in a 37°C incubator for 10 min, an appropriate amount of complete medium was added, and then the culture is continued in the incubator.

primary neurons = assay: as above; format: cell-based, mouse; settings: 24 h, CCK8, three replicate wells
Text: as §1, §3

With `CCOC(=O)c1[nH]c(C)c(CCC(=O)N2CCCC(C(=O)NCCN3CCCCCC3)C2)c1C` (centres unmarked) [compound of Formula I, ETHYL4-[3-(3-{[2-(AZEPAN-1-YL)ETHYL]CARBAMOYL}PIPERIDIN-1-YL)-3-OXOPROPYL]-3, 5-DIMETHYL-1H-PYRROLE-2-CARBOXYLATE] as the molecule, how does the concentration at 0.25 h ([1]; Balb/c, mouse, serum, ip, 2.5 mg/kg, IP 2.5 mg/kg, 0.25 hr, individual animals, read-out: Concentration (blood)) read?
Its concentration at 0.25 h is 369 ng/mL.

And the concentration at 0.25 h ([1]; Balb/c, mouse, serum, ip, 2.5 mg/kg, IP 2.5 mg/kg, 0.25 hr, mean of 3 animals, read-out: Concentration (blood) Mean)?
The concentration at 0.25 h was 423 ng/mL.

What about the concentration at 0.5 h ([1]; Balb/c, mouse, serum, ip, 2.5 mg/kg, IP 2.5 mg/kg, 0.5 hr, individual animals, read-out: Concentration (blood)) of the same molecule?
The concentration at 0.5 h was 364 ng/mL.

And the concentration at 0.5 h ([1]; Balb/c, mouse, serum, ip, 2.5 mg/kg, IP 2.5 mg/kg, 0.5 hr, mean of 3 animals, read-out: Concentration (blood) Mean)?
Its concentration at 0.5 h is 374 ng/mL.

And the concentration at 1 h ([1]; Balb/c, mouse, serum, ip, 2.5 mg/kg, IP 2.5 mg/kg, 1 hr, mean of 3 animals)?
Its concentration at 1 h is 145 ng/mL.

What about the concentration at 2 h ([1]; Balb/c, mouse, serum, ip, 2.5 mg/kg, IP 2.5 mg/kg, 2 hr, mean of 3 animals) of the same molecule?
Its concentration at 2 h is 36.1 ng/mL.

What about the concentration at 4 h ([1]; Balb/c, mouse, serum, ip, 2.5 mg/kg, IP 2.5 mg/kg, 4 hr, mean of 3 animals) of the same molecule?
The concentration at 4 h was 5.14 ng/mL.

What about the “Concentration (blood)” value ([1]; IP 2.5 mg/kg, 0.25 hr, individual animals, 2.5 mg/kg) of the same molecule?
The value was 350 ng/mL and 551 ng/mL.

And the “Concentration (blood)” value ([1]; IP 2.5 mg/kg, 0.5 hr, individual animals, 2.5 mg/kg)?
Its value is 328 ng/mL and 431 ng/mL.

And the “Concentration (blood)” value ([1]; IP 2.5 mg/kg, 1 hr, individual animals, 2.5 mg/kg)?
The value was 118 ng/mL and 217 ng/mL and 99.3 ng/mL.

What about the “Concentration (blood)” value ([1]; IP 2.5 mg/kg, 2 hr, individual animals, 2.5 mg/kg) of the same molecule?
The value was 22.7 ng/mL and 63.7 ng/mL and 22.0 ng/mL.

What about the “Concentration (blood)” value ([1]; IP 2.5 mg/kg, 4 hr, individual animals, 2.5 mg/kg) of the same molecule?
Its value is 3.63 ng/mL and 8.64 ng/mL and 3.15 ng/mL.

And the “Concentration (blood)” value ([1]; IP 2.5 mg/kg, 6 hr, individual animals)?
Its value is “BLOQ (BLOQ = Below LOQ, LOQ = 2.0 ng/mL)”.

What about the “Concentration (blood) Mean” value ([1]; IP 2.5 mg/kg, 6 hr, mean of 3 animals) of the same molecule?
The value was “BLOQ (BLOQ = Below LOQ, LOQ = 2.0 ng/mL)”.

And the “Concentration (blood)” value ([1]; IP 2.5 mg/kg, 8 hr, individual animals)?
The value was “BLOQ (BLOQ = Below LOQ, LOQ = 2.0 ng/mL)”.

What about the “Concentration (blood) Mean” value ([1]; IP 2.5 mg/kg, 8 hr, mean of 3 animals) of the same molecule?
The value was “BLOQ (BLOQ = Below LOQ, LOQ = 2.0 ng/mL)”.

What about the “Concentration (blood)” value ([1]; IP 2.5 mg/kg, 24 hr, individual animals) of the same molecule?
Its value is “BLOQ (BLOQ = Below LOQ, LOQ = 2.0 ng/mL)”.

And the “Concentration (blood) Mean” value ([1]; IP 2.5 mg/kg, 24 hr, mean of 3 animals)?
The value was “BLOQ (BLOQ = Below LOQ, LOQ = 2.0 ng/mL)”.

What about the “blood concentration of the compound” value ([1]; single IP injection 2.5 mg/kg, after 6 h) of the same molecule?
Its value is “undetectable”.

What about the viability at 24 h, 5 µmol ([2]; 5 µmol) of the same molecule?
The viability at 24 h, 5 µmol was 96.6%.

And the viability at 24 h, 10 µmol ([2]; 10 µmol)?
Its viability at 24 h, 10 µmol is 109%.

What about the viability at 24 h, 20 µmol ([2]; 20 µmol) of the same molecule?
The viability at 24 h, 20 µmol was 93.1%.

And the viability at 24 h, 40 µmol ([2]; 40 µmol)?
The viability at 24 h, 40 µmol was 86.7%.

What about the viability at 24 h, 80 µmol ([2]; 80 µmol) of the same molecule?
The viability at 24 h, 80 µmol was 22.7%.

And the viability at 24 h, 160 µmol ([2]; 160 µmol)?
The viability at 24 h, 160 µmol was 27.2%.

What about the cell viability (293T cell line; 5 µmol) of the same molecule?
The cell viability was 106.6% and 109.2%.

And the cell viability (293T cell line; 10 µmol)?
The cell viability was 109.8% and 96.54%.

What about the cell viability (293T cell line; 20 µmol) of the same molecule?
The cell viability was 95.56% and 93.46%.

What about the cell viability (293T cell line; 40 µmol) of the same molecule?
The cell viability was 86.71% and 78.81%.

What about the cell viability (293T cell line; 80 µmol) of the same molecule?
The cell viability was 24% and 23.36%.

What about the cell viability (293T cell line; 160 µmol) of the same molecule?
The cell viability was 32.01% and 28.26%.

What about the viability at 24 h, 1.25 µmol ([3]; 1.25 µmol) of the same molecule?
Its viability at 24 h, 1.25 µmol is 94.5%.

And the viability at 24 h, 5 µmol ([3]; 5 µmol)?
The viability at 24 h, 5 µmol was 70.7%.

And the viability at 24 h, 10 µmol ([3]; 10 µmol)?
The viability at 24 h, 10 µmol was 51.8%.

And the viability at 24 h, 20 µmol ([3]; 20 µmol)?
Its viability at 24 h, 20 µmol is 37.1%.

What about the viability at 24 h, 80 µmol ([3]; 80 µmol) of the same molecule?
The viability at 24 h, 80 µmol was 4.02%.

What about the viability at 24 h, 160 µmol ([3]; 160 µmol) of the same molecule?
Its viability at 24 h, 160 µmol is 4.65%.

And the viability at 24 h, 2.5 µmol [3]?
The viability at 24 h, 2.5 µmol was 90.6%.

What about the cell viability (primary neurons; 1.25 µmol) of the same molecule?
The cell viability was 88.68% and 77.1%.

What about the cell viability (primary neurons; 5 µmol) of the same molecule?
Its cell viability is 77.35% and 75.31%.

And the cell viability (primary neurons; 10 µmol)?
Its cell viability is 58.82% and 65.03%.

What about the cell viability (primary neurons; 20 µmol) of the same molecule?
The cell viability was 40.38% and 35.57%.

What about the cell viability (primary neurons; 40 µmol) of the same molecule?
The cell viability was 23.14% and 48.19% and 36.68%.

And the cell viability (primary neurons; 160 µmol)?
The cell viability was 3.329% and 5.244%.
